Test results reported in BindingDB's records for doi:10.1016/S0960-894X(01)80506-0 (n/a, 1994).

Columns and labels:
Beta-lactamase TEM = Beta-lactamase TEM (Escherichia coli, UniProt P62593); test: Concentration required for its inhibitory activity against Escherichia coli JT4(TEM1) class A beta-lactamase
Beta-lactamase [1] = biological target: Beta-lactamase (Pseudomonas aeruginosa (strain ATCC 15692 / DSM 22644 / CIP 104116 / JCM 14847 / LMG 12228 / 1C / PRS 101 / PAO1), UniProt P24735); test: Concentration required for its inhibitory activity against Pseudomonas aeruginosa class C beta-lactamase
Beta-lactamase (Pseudomonas aeruginosa (strain ATCC 15692 / DSM 22644 / CIP 104116 / JCM 14847 / LMG 12228 / 1C / PRS 101 / PAO1), UniProt P24735), sequence (P24735 whole entry): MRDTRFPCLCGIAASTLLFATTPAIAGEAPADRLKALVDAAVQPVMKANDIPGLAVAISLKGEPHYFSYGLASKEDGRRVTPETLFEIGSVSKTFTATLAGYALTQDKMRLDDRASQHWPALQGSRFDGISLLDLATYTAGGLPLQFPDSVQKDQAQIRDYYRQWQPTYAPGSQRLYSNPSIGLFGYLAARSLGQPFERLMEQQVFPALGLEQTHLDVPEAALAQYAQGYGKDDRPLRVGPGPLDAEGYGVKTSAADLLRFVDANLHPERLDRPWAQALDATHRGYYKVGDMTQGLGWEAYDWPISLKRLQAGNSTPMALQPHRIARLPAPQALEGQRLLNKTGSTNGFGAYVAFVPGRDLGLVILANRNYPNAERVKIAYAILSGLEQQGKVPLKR

Beta-lactamase [2] = biological target: Beta-lactamase (Enterobacter cloacae, UniProt P05364); test: Concentration required for its inhibitory activity against Enterobacter cloacae P99 class C beta-lactamase
Beta-lactamase (Enterobacter cloacae, UniProt P05364), sequence (P05364 whole entry): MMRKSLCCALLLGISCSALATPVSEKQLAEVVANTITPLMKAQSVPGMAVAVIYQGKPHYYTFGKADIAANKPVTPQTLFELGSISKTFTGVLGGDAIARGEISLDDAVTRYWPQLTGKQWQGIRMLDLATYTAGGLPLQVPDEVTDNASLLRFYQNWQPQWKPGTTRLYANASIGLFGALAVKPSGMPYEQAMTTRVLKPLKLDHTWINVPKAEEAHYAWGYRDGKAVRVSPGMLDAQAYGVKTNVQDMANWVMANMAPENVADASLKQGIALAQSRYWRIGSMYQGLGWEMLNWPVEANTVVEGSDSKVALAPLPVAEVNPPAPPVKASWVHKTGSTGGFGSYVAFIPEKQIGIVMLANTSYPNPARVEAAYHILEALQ

Beta-lactamase [3] = biological target: T1, Beta-lactamase (Escherichia coli, UniProt Q2V0Y6); test: Concentration required for its inhibitory activity against Escherichia coli K12(PSE4) class A beta-lactamase
T1 sequence (Q2V0Y6 whole entry): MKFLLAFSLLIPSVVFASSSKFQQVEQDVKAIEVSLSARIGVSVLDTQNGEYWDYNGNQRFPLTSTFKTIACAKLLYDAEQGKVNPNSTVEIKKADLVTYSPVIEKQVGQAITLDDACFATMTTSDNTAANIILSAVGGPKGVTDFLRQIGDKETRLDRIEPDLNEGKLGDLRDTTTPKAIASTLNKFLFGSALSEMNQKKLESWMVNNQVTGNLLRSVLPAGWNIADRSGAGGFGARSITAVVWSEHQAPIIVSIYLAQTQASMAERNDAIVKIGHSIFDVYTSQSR

Beta-lactamase OXA-1 = Beta-lactamase OXA-1 (Escherichia coli, UniProt P13661); test: Concentration required for its inhibitory activity against Escherichia coli K12(OXA1) class D beta-lactamase
Beta-lactamase OXA-1, sequence (P13661 whole entry): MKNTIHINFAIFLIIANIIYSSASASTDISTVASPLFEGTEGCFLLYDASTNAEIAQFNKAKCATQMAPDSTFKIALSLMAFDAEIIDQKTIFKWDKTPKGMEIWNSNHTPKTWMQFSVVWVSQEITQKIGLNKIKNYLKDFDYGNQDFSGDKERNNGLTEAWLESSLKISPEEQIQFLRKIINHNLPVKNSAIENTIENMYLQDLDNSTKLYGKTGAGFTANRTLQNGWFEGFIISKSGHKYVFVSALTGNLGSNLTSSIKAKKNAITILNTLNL

Beta-lactamase [4] = biological target: T2, Beta-lactamase (Proteus mirabilis, UniProt P30897); test: Concentration required for its inhibitory activity against Proteus mirabilis C889 class A beta-lactamase
T2 sequence (P30897 whole entry): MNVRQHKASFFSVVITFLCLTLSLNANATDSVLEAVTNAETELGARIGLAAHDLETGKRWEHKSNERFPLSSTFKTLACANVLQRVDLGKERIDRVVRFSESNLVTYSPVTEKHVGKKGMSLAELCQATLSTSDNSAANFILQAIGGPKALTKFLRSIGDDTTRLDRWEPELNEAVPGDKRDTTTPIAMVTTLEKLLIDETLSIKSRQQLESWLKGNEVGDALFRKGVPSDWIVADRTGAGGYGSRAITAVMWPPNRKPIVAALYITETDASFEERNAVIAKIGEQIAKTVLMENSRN

Beta-lactamase TEM, sequence (P62593 whole entry): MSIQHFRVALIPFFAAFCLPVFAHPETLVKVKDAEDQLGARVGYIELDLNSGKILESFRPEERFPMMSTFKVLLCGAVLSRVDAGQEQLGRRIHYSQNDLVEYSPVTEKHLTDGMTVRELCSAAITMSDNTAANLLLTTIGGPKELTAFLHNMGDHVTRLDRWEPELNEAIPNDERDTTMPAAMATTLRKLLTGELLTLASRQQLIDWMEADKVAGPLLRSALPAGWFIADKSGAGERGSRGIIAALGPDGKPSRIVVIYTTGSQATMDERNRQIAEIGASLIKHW

`CC(C)CCCCCCCCCCCCCc1cccc(O)c1C(=O)O` showed an IC50 (Beta-lactamase TEM) of 26.7 µM, an IC50 (Beta-lactamase [1]) of 44.1 µM and an IC50 (Beta-lactamase [2]) of 24.8 µM.

`CC/C=C\C/C=C\C/C=C\CCCCCCCc1cccc(O)c1C(=O)O` gave an IC50 (Beta-lactamase TEM) of 13.4 µM, an IC50 (Beta-lactamase [3]) of 26.9 µM and an IC50 (Beta-lactamase [2]) of 45.8 µM.

In the case of `CCC(C)CCCCCCCCCCCCc1cccc(O)c1C(=O)O` (centres undefined), the IC50 (Beta-lactamase TEM) is reported as 27.5 µM, the IC50 (Beta-lactamase [1]) is reported as 99.2 µM and the IC50 (Beta-lactamase [2]) is reported as 85.5 µM.

In the case of `CCCCCCCCCCc1ccccc1C(=O)O`, the IC50 (Beta-lactamase TEM) is reported as 68.6 µM.

Molecule `CCCCCCCCCCCCCCCc1cccc(OC)c1C(=O)O` has an IC50 (Beta-lactamase OXA-1) greater than 91 µM, an IC50 (Beta-lactamase TEM) of 2.2 µM and an IC50 (Beta-lactamase [1]) of 30.3 µM. The IC50 (Beta-lactamase [4]) was 60.6 µM, the IC50 (Beta-lactamase [3]) was 1.65 µM and the IC50 (Beta-lactamase [2]) was 6.89 µM.

Work on `CCCCCCCCCCCCCCCc1cccc(O)c1O` yielded an IC50 (Beta-lactamase [2]) of 90.4 µM.

Work on `CCCCCCCCCCc1cccc(O)c1O` yielded an IC50 (Beta-lactamase [2]) of 83.8 µM.

Molecule `CCCCCCCCCCc1cccc(O)c1` has an IC50 (Beta-lactamase TEM) of 8.1 µM, an IC50 (Beta-lactamase [3]) of 17.4 µM and an IC50 (Beta-lactamase [2]) of 19.1 µM.

`CCCCCCCCCCCCCCCCCc1cccc(O)c1C(=O)O` showed an IC50 (Beta-lactamase OXA-1) of 77 µM, an IC50 (Beta-lactamase TEM) of 5.04 µM and an IC50 (Beta-lactamase [1]) of 24.1 µM. It also gave an IC50 (Beta-lactamase [4]) of 22 µM, an IC50 (Beta-lactamase [3]) of 1.85 µM and an IC50 (Beta-lactamase [2]) of 2.65 µM.

`CCCCCCCCc1cccc(O)c1C(=O)O` gave an IC50 (Beta-lactamase [4]) of 15.5 µM and an IC50 (Beta-lactamase [3]) of 63.9 µM.

Work on `CCCCCCCCCCc1cccc(O)c1C(=O)O` yielded an IC50 (Beta-lactamase TEM) of 43.1 µM.

Molecule `CCCCCCCCCCCCCCCc1cccc(O)c1` [3-pentadecylphenol] has an IC50 (Beta-lactamase [3]) of 65.6 µM and an IC50 (Beta-lactamase [2]) of 23.6 µM.

For `C=CC/C=C\C/C=C\CCCCCCCc1cccc(O)c1C(=O)O` [6-[8(Z),11(Z),14-pentadecatrienyl]salicylic acid], the IC50 (Beta-lactamase OXA-1) was 72.9 µM, the IC50 (Beta-lactamase TEM) was 2.33 µM and the IC50 (Beta-lactamase [1]) was 21 µM. It also gave an IC50 (Beta-lactamase [4]) of 90.5 µM, an IC50 (Beta-lactamase [3]) of 3.21 µM and an IC50 (Beta-lactamase [2]) of 4.08 µM.

In the case of `O=C(O)[C@H]1/C(=C/CO)O[C@@H]2CC(=O)N21` [antibiotic MM 14151], the IC50 (Beta-lactamase OXA-1) is reported as 1.75 µM.
